Results: article PMC9301969 (ACS Omega, 2022)

Target: human serum albumin (HSA, nonglycated) (Homo sapiens, UniProt P02768)
Experiment: fluorescence polarization
Type: binding

Chain of human serum albumin (HSA, nonglycated) (P02768 25-609): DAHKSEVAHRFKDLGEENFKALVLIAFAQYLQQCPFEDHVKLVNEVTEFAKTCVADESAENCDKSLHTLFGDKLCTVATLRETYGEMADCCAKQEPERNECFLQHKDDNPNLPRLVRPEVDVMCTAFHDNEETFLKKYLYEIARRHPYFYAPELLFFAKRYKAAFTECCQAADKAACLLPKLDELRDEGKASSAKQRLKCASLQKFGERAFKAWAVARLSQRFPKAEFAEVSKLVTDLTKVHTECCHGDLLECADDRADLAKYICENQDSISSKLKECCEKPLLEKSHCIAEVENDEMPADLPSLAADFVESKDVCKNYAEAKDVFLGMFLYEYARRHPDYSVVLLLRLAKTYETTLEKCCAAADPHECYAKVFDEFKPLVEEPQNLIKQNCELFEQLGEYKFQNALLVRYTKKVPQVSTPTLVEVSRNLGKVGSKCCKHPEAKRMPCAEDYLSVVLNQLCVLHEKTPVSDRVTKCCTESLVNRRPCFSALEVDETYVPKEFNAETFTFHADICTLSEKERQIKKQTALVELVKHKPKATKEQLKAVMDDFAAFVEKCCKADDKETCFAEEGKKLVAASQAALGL

## O=C(O)CCN(Cc1ccc(C(F)(F)F)cc1B(O)O)Cc1c2ccccc2c(CN(CCC(=O)O)Cc2ccc(C(F)(F)F)cc2B(O)O)c2ccccc12 [compound 8, 3,3′-((anthracene-9,10-diylbis(methylene))bis((2-borono-4-(trifluoromethyl)benzyl)azanediyl))dipropionic acid]
  Kd: 2 µM
